Experimental data taken from patent publication US8937065B2, “Compositions and methods for modulating a kinase” (Clevexel Pharma, priority 2011, dated 2015).
Converted amounts (≈) assume the structure as drawn. Where two headings read alike, the source gives them in different places.

Experiments:
JAK3 pathway = experiment: Cell based JAK3 pathway inhibition (STAT6-bla RA1 cells, IL-4 activated); conditions: for Emax: cell based JAK3 pathway inhibition, maximal inhibition, read-out: Max % Inh; for IC50: STAT6-bla RA1 cells, IL-4 at EC80
Protocol: 32 μL of the cell suspension (25,000 cells) was added to each well of a 384-well TC-Treated assay plate. Cells in Assay Media were incubated for 16-24 hours in the plate at 37° C./5% CO2 in a humidified incubator. 4 μL of a 10× serial dilution of a compound of the invention was added to appropriate wells of the plate and pre-incubated at 37° C./5% CO2 in a humidified incubator with cells for 30 minutes. 4 μL of 10× control activator IL-4 at the predetermined EC80 concentration was added to wells containing the compound of the invention. The plate was incubated for 5 hours at 37° C./5% CO2 in a humidified incubator. 8 μL of 1 μM Substrate Loading Solution was added to each well and the plate was incubated for 2 hours at room temperature. The plate was read on a fluorescence plate reader.

JAK3 = molecular target: T1, JAK3 (Homo sapiens, UniProt P52333); experiment: JAK3 enzymatic activity assay (Z'-LYTE Biochemical Kinase Assay, 2 hr preincubation at 4° C.); conditions: cell free, 1% DMSO, read-out: JAK3 activity cell free (2 hr preincubation at (4° C.) Kj)
T1 construct: purchased Invitrogen, Madison, Wis
T1 sequence (P52333 1-1124): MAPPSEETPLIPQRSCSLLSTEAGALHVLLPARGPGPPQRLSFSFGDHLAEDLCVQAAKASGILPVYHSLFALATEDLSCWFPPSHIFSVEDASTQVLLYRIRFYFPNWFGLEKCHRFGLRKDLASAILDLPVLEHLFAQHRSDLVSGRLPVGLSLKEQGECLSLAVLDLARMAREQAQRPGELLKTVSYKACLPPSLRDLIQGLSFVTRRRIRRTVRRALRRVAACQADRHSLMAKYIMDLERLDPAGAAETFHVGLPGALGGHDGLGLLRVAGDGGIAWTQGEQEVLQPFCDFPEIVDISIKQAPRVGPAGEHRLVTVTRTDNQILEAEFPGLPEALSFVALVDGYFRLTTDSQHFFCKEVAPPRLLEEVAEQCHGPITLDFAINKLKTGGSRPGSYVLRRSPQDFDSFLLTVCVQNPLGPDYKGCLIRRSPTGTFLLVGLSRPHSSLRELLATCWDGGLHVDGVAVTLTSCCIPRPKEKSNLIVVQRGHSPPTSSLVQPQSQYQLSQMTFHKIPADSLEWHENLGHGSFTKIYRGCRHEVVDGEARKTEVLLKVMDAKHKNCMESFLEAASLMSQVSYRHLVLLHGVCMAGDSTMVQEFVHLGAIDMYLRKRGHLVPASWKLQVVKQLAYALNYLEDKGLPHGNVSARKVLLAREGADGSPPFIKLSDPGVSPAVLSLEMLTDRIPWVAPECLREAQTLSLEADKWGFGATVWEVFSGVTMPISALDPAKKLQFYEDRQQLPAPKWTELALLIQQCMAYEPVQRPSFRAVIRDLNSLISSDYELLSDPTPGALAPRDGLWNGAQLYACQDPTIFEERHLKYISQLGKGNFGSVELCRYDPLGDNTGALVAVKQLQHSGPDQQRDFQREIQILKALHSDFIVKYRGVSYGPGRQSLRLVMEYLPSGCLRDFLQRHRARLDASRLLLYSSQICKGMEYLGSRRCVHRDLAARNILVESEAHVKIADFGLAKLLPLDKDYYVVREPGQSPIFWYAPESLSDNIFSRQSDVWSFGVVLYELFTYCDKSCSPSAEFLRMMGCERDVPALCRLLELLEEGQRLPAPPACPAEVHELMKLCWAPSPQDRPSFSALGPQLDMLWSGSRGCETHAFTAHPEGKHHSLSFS
Protocol: The assays were performed according to manufacturer's protocols, except that prior to the kinase reaction they were pre-incubated for 2 hours at 4° C., in order to be able to assay for time-dependent inhibition.
In addition to the compound, each 10 μL JAK3 kinase reaction contained 0.43-1.89 ng JAK3 and 2 μM peptide substrate in 50 mM HEPES (pH 7.5), 0.01% BRIJ-35, 10 mM MgCl2 and 1 mM EGTA. The kinase reaction was allowed to proceed for 1 hour.

physchem = conditions: pH 7.4, aqueous buffer, thermodynamic from solid
Protocol: The test concentration was 100 μM (0% of DMSO for test compounds, 1% of DMSO for reference compounds). The test system was a 100 mM phosphate buffer (pH 7.4). Sample size was duplicates (n=2) and the bioanalytical method was LC-UV (Agilent-1200). Mobile phase A: H2O-1% TFA, B: MeOH-1% TFA; column Boston Symmetrix ODS-H (2.1×50 mm, 5 μm); LC conditions 0.4 mL/Min.
Assay Procedure • 1. For reference compounds: • Add 8 μL of 10 mM DMSO stock solution into 792 μL of 100 mM phosphate buffer (n=2). Final conc.=100 μM (1% of DMSO)
For test compounds: • Add 8 μL of 10 mM DMSO stock solution into the tubes (n=2). • Dry the samples under nitrogen. • Add 800 μL of 100 mM phosphate buffer into the tubes. Final conc.=100 μM (0% of DMSO) • 2. Sample tubes are shaken for 1 hour (1000 rpm) at room temperature and 37° C. • 3. Samples are centrifuged (10 min-12000 rpm) to precipitate un-dissolved particles. • 4. Supernatants are transferred to new tubes • 5. Concentrations of the supernatants after centrifugation are determined by LC-UV detection.

Daudi cells = experiment: Daudi CTG assay (Daudi proliferation, 72 hr, Cell Titer Glo); assay type: cell-based; conditions: Homo sapiens
Protocol: The compounds of the invention were tested on Daudi proliferation according to the procedure in Example 4 (for Daudi cells): Proliferation of RS4; 11, Ramos, Namalwa, RL, Molt-4 and Daudi cells. The compounds of the invention were tested on Daudi proliferation (72 hr), 3 fold dilution, and 9 points in duplicates. The top concentration for compounds of the invention was 10 uM; reference compound 7A top concentration was 10 uM; and Paclitaxel was 500 nM. Cell viability was determined using the Cell Titer Glo (CTG) reagent and detected by EnVision. EC50s were calculated by Prism 5.
The CellTiter-Glo™ Luminescent Cell Viability Assay uses ATP, a required co-factor of the luciferase reaction, as an indicator of metabolically active cells. The enzyme luciferase acts on luciferin in the presence of Mg^2+and ATP to produce oxyluciferin and to release energy in the form of luminescence. Since the luciferase reaction requires ATP, the luminescence produced is proportional to the amount of ATP present, an indicator of cellular metabolic activity.

[1] = Daudi CTG assay, Daudi proliferation 72 hr, Cell Titer Glo, top concentration 10 uM (Paclitaxel 500 nM), read-out: IC50

| Ki (JAK3) [µM] | IC50 (JAK3 pathway) [µM] | SMILES | Emax (JAK3 pathway) [%] | also measured |
| --- | --- | --- | --- | --- |
| – | – | O=C(c1cc(-c2csc(NCc3ccco3)n2)c[nH]1)N1CCCC1 [5A] | 68 | – |
| 1.1 to 10 | 1.1 to 10 | O=C(c1cc(-c2csc(NCc3ccco3)n2)c[nH]1)N1CCCC1 [6A] | – | – |
| – | – | O=C(CN1CCOCC1)Nc1cccc(-c2nc(-c3c[nH]c(C(=O)N4CCCC4)c3)cs2)c1 [7A (sample 1), 2-morpholino-N-(3-(4-(5-(pyrrolidine-1-carbonyl)-1H-pyrrol-3-yl)thiazol-2-yl)phenyl)acetamide] | – | solubility at 1 h (physchem; Solubility (μM) Mean): 5.9 µM (≈ 2.75 µg/mL); solubility at 1 h (physchem; Solubility in PBS): < 10 µM |
| 1.1 to 10 | – | Cc1csc(Cc2nc(-c3c[nH]c(C(=O)N4CCCC4)c3)cs2)n1 [8A] | – | – |
| 1.1 to 10 | – | CCOc1ccc(-c2nc(-c3c[nH]c(C(=O)N4CCCC4)c3)cs2)cc1OC [9A] | – | – |
| 1.1 to 10 | – | COc1cccc(-c2nc(-c3c[nH]c(C(=O)N4CCCC4)c3)cs2)c1 [10A] | – | – |
| – | 0.11 to 1 | O=C(c1cc(-c2csc(Nc3ccccc3)n2)c[nH]1)N1CCCC1 [12A] | 81 | – |
| – | 0.11 to 1 | O=C(c1cc(-c2csc(Nc3ccc(F)cc3)n2)c[nH]1)N1CCCC1 [13A] | 78 | – |
| 1.1 to 10 | – | CC(=O)c1ccc(Nc2nc(-c3c[nH]c(C(=O)N4CCCC4)c3)cs2)cc1 [14A] | – | – |
| > 10 | – | CN(c1ccccc1)c1nc(-c2c[nH]c(C(=O)N3CCCC3)c2)cs1 [15A] | – | – |
| > 10 | – | O=C(Nc1cccc(-c2nc(-c3c[nH]c(C(=O)N4CCCC4)c3)cs2)c1)c1ccccc1 [16A] | – | – |
| > 10 | 0.11 to 1 | CN1CCN(CC(=O)Nc2cccc(-c3nc(-c4c[nH]c(C(=O)N5CCCC5)c4)cs3)c2)CC1 [17A] | – | – |
| 1.1 to 10 | – | O=C(c1cc(-c2csc(Nc3c(F)cc(F)cc3F)n2)c[nH]1)N1CCCC1 [18A] | – | – |
| 1.1 to 10 | – | O=C(c1cc(-c2csc(Nc3ccc(N4CCOCC4)cc3)n2)c[nH]1)N1CCCC1 [19A] | – | – |
| – | 0.11 to 1 | O=C(CN1CCCCC1)Nc1cccc(-c2nc(-c3c[nH]c(C(=O)N4CCCC4)c3)cs2)c1 [20A] | 80.2 | – |
| – | 0.11 to 1 | CC(=O)Nc1cccc(-c2nc(-c3c[nH]c(C(=O)N4CCCC4)c3)cs2)c1 [21A] | 84.4 | – |
| – | 0.11 to 1 | O=C(CN1CCOCC1)Nc1ccc(-c2nc(-c3c[nH]c(C(=O)N4CCCC4)c3)cs2)cc1 [22A] | 100 | – |
| – | 1.1 to 10 | CN(C)C(=O)c1cc(-c2csc(-c3cccc(NC(=O)CN4CCOCC4)c3)n2)c[nH]1 [23A] | 75.1 | – |
| – | 1.1 to 10 | CN(C)C(=O)c1cc(-c2csc(-c3cccc(NC(=O)CN4CCCCC4)c3)n2)c[nH]1 [24A] | 74.7 | – |

| Ki (JAK3) [µM] | IC50 (JAK3 pathway) [µM] | SMILES | Emax (JAK3 pathway) [%] | also measured |
| --- | --- | --- | --- | --- |
| – | > 10 | CN1CCN(CC(=O)Nc2cccc(-c3nc(-c4c[nH]c(C(=O)N(C)C)c4)cs3)c2)CC1 [25A] | – | – |
| – | 0.11 to 1 | CN(C)CC(=O)Nc1cccc(-c2nc(-c3c[nH]c(C(=O)N4CCCC4)c3)cs2)c1 [26A] | 74.6 | – |
| – | 1.1 to 10 | O=C(CN1CCOCC1)Nc1cccc(-c2nc(-c3c[nH]c(C(=O)NC4CC4)c3)cs2)c1 [27A] | 100 | – |
| – | 0.11 to 1 | O=C(Nc1cccc(-c2nc(-c3c[nH]c(C(=O)N4CCCC4)c3)cs2)c1)N1CCOCC1 [28A] | 82.3 | – |
| – | > 10 | NC(=O)c1cc(-c2csc(-c3cccc(NC(=O)CN4CCOCC4)c3)n2)c[nH]1 [29A] | – | IC50 (Daudi cells; [1]): > 10 µM |
| – | 1.1 to 10 | CCN(CC)C(=O)c1cc(-c2csc(-c3cccc(NC(=O)CN4CCOCC4)c3)n2)c[nH]1 [30A] | 98.2 | IC50 (Daudi cells; [1]): 1.1 to 10 µM |
| – | 1.1 to 10 | O=C(CN1CCOCC1)Nc1ccc(-c2nc(-c3c[nH]c(C(=O)N4CCCCC4)c3)cs2)cc1 [31A] | 76.8 | IC50 (Daudi cells; [1]): 1.1 to 10 µM |
| – | 0.11 to 1 | COc1ccc(-c2nc(-c3c[nH]c(C(=O)N4CCCC4)c3)cs2)cc1NC(=O)CN1CCOCC1 [32A] | 71.7 | IC50 (Daudi cells; [1]): 0.11 to 1 µM |
| – | 0.11 to 1 | COc1ccc(-c2nc(-c3c[nH]c(C(=O)N4CCCC4)c3)cs2)cc1NC(=O)CN1CCCCC1 [33A] | 69.8 | IC50 (Daudi cells; [1]): 0.11 to 1 µM |
| – | 0.11 to 1 | CCN(CC)CC(=O)Nc1cc(-c2nc(-c3c[nH]c(C(=O)N4CCCC4)c3)cs2)ccc1OC [34A] | 79.7 | IC50 (Daudi cells; [1]): 0.11 to 1 µM |
| – | 0.11 to 1 | O=C(CN1CCOCC1)Nc1cc(-c2nc(-c3c[nH]c(C(=O)N4CCCC4)c3)cs2)ccc1F [35A] | 78.9 | IC50 (Daudi cells; [1]): 0.11 to 1 µM |
| 1.1 to 10 | – | O=C(c1cc(-c2csc(Nc3cccc(C(F)(F)F)c3)n2)c[nH]1)N1CCCC1 [39A] | – | – |
| 1.1 to 10 | – | O=C(c1cc(-c2csc(NC3CCCC3)n2)c[nH]1)N1CCCC1 [45A] | – | – |
| 1.1 to 10 | – | O=C(c1cc(-c2csc(NCc3ccc(F)cc3)n2)c[nH]1)N1CCCC1 [47A] | – | – |
| – | 0.11 to 1 | O=C(c1cc(-c2csc(-c3ccccn3)n2)c[nH]1)N1CCCC1 [53A] | 72 | – |
| – | 0.11 to 1 | O=C(c1cc(-c2csc(-c3ccc(Cl)cc3)n2)c[nH]1)N1CCCC1 [61A] | 60 | – |
| – | 0.11 to 1 | Cc1ccc(-c2nc(-c3c[nH]c(C(=O)N4CCCC4)c3)cs2)c(C)c1 [63A] | 63 | – |
| 1.1 to 10 | – | Cc1ccccc1-c1nc(-c2c[nH]c(C(=O)N3CCCC3)c2)cs1 [64A] | – | – |
| – | – | CC(=O)O[C@H]1C(=O)[C@@]2(C)[C@H]([C@H](OC(=O)c3ccccc3)[C@]3(O)C[C@H](OC(=O)[C@H](O)[C@@H](NC(=O)c4ccccc4)c4ccccc4)C(C)=C1C3(C)C)[C@]1(OC(C)=O)CO[C@@H]1C[C@@H]2O [Paclitaxel, paclitaxel, reference compound] | – | IC50 (Daudi cells; Daudi, read-out: Daudi CTG assay IC50, historical data): 0.00469 µM; IC50 (Daudi cells; Daudi proliferation 72 hr, control compounds, read-out: Daudi CTG assay control IC50): 0.00449 µM |
